Test results published in paper PMC11903455 (Frontiers in Pharmacology, 2025).
Where a name gives a salt, the structure may show the parent alone. Read-outs that look alike come from different tables or passages of the source. One block for each compound: values may come before it.

Legend:
dopamine (DA) = test: ELISA of brain tissue: DA; format: in vivo, rat; details: for brain DA compared with the control group: crocin I high-dose group, positive drug group
Description: (§1) Anxiety-like depression rat model is induced by chronic induction of corticosterone. Five-week-old SD male rats (8/cage) randomly received 0.45% soluble Corticosterone suspension in β-cyclodextrin. The number of rats in each group has been supplemented in part 1.2 of the manuscript method. Specifically described as “The rats were randomly divided into 7 groups, 8 rats in each group, a total of 56 rats. […] The model was established by subcutaneous injection of corticosterone (20 mg⋅kg^−1) for 21 consecutive days. […] The control group and model group were given the same volume of normal saline. Solution preparation methods are described in Supplementary Material S1.1.
(§2) The contents of Serotonin transporter (5-HTT, JW.RA1057), dopamine (DA, JW.RA1621), γ-aminobutyric acid (GABA, JW.RA1389) and noradrenaline (NA, JW.RA2154) in the hippocampus were measured by ELISA kit. The tissue samples were added to PBS low-temperature homogenate according to 1:10, and the homogenate was centrifuged at 10,000 rpm at 4 °C […] for 10 min. The supernatant was taken to detect the content of the sample.

hippocampal neurons = test: Nissl staining of hippocampus (DG, CA1, CA3); format: in vivo, rat; details: for neuronal cell damage in the dentate gyrus region: after administration, corticosterone model rats; for number of Nissl bodies, hippocampal CA3: crocin I low, medium, high dose, positive drug 5 mg/kg; for number of Nissl bodies, hippocampal CA1: high dose crocin I (9 mg/kg), positive control drug 5 mg/kg
From the text: (§3) Anxiety-like depression rat model is induced by chronic induction of corticosterone. Five-week-old SD male rats (8/cage) randomly received 0.45% soluble Corticosterone suspension in β-cyclodextrin. The number of rats in each group has been supplemented in part 1.2 of the manuscript method. Specifically described as “The rats were randomly divided into 7 groups, 8 rats in each group, a total of 56 rats. The number of groups were model group, blank control group, positive drug group, low, middle, and high dose of Crocin I group, and gardenia extract group respectively. The model was established by subcutaneous injection of corticosterone (20 mg⋅kg^−1) for 21 consecutive days. […] The control group and model group were given the same volume of normal saline. Solution preparation methods are described in Supplementary Material S1.1.
(§4) The rats were deeply anesthetized with 2% sodium pentobarbital. After 15 min, the rats heart were perfused and fixed with normal saline and 4% paraformaldehyde, respectively. Then the brain tissues of rats in different groups were collected. The brain tissue was cryosectioned at a thickness of 3 μm, and then Nissl staining was performed to analyze the hippocampal region of interest. The staining process is detailed in Supplementary Material S1.4.
After the behavioral evaluation of the rats, the rats were anesthetized and decapitated to take the brain. The brain tissue was fixed with 4% paraformaldehyde for 24 hours. Rinse with normal saline to remove the residual fixative. Dehydration with 30% sucrose solution. It was embedded with an OTC embedding agent, and after it was completely frozen, the shape was trimmed and the sections were frozen. According to the localization map of rat brain sections, the target locations of the hippocampus and prefrontal cortex of rats were selected and sectioned continuously in the coronal plane with a thickness of 3 µm. Stick the slides with adhesive slides and bake the slides in an oven at 37 ℃ for half an hour. The slices were stained with methyl violet dye and rinsed with distilled water. Nissl Differentiation was used to differentiate for 5 s and most of the staining solution was removed. The slides were placed successively in different concentrations of ethanol and gradient dehydration (0%, 50%, 75%, and 95% ethanol, the section and background color should be observed under a microscope during dehydration). After dehydration, the sections were sealed with transparent and neutral gum in anhydrous ethanol Ⅰ, Ⅱ, anhydrous ethanol-xylene (1:1), xylene Ⅰ, and Ⅱ solution, respectively, and observed under a microscope.

noradrenaline (NA) = test: ELISA of brain tissue: NA; format: in vivo, rat
Description: as §1, §2

[1] = test system: γ-aminobutyric acid (GABA); test: ELISA of brain tissue: GABA; format: in vivo, rat
Description: as §1, §2

cortical neurons = test: Nissl staining of prefrontal cortex; format: in vivo, rat; details: crocin I low, medium, high doses; Gardenia extract 0.9 g/kg; positive drug 5 mg/kg
From the text: as §3, §4
After the behavioral evaluation of the rats, the rats were anesthetized and decapitated to take the brain. […]

[2] = test system: rats with corticosterone-induced anxiety-like depression; test: Morris water maze test; format: in vivo, rat
From the text: Anxiety-like depression rat model is induced by chronic induction of corticosterone. Five-week-old SD male rats (8/cage) randomly received 0.45% soluble Corticosterone suspension in β-cyclodextrin. The number of rats in each group has been supplemented in part 1.2 of the manuscript method. Specifically described as “The rats were randomly divided into 7 groups, 8 rats in each group, a total of 56 rats. The number of groups were model group, blank control group, positive drug group, low, middle, and high dose of Crocin I group, and gardenia extract group respectively. The model was established by subcutaneous injection of corticosterone (20 mg⋅kg^−1) for 21 consecutive days. […] The control group and model group were given the same volume of normal saline. […]
(§5) After the model was established. […] Depression was assessed by the preference for sweet foods in healthy rats ([Tan et al., 2020]) Details were provided in the Additional file: SI 1.2-1.3.
The water maze round pool was divided into Ⅰ, Ⅱ, Ⅲ, and Ⅳ quadrants. […] The position was placed once along the Ⅰ, Ⅱ, Ⅲ, and Ⅳ quadrants respectively, and the time of finding the platform within 60 seconds was recorded. […] After 5 days, the platform was removed, the animals were put into the pool from the original platform, and the number of rats crossing the target quadrant within 60 seconds was recorded.

[3] = test system: Serotonin transporter (5-HTT); test: ELISA of brain tissue: 5-HTT; format: in vivo, rat
Description: as §1, §2

[4] = no reference given; cited from earlier work
Caco-2 cells = details: no method or reference given; cited from earlier work
[5] = test system: rats with corticosterone-induced anxiety-like depression; test: Sucrose (sugar water) preference test; format: in vivo, rat; details: corticosterone model rats; crocin I 2.25, 4.5, 9 mg/kg intragastric
From the text: as §3, §5
1% sucrose aqueous solution was used in the experiment. […] On the day of the test, two bottles containing the same volume of 1% sucrose solution and ordinary water were put into cages, weighed before and after drinking water, and the liquid consumption in the two bottles within 24 hours was calculated.

[6] = Stability of crocetin in plasma samples; format: in vitro ADME, rat; details: within one week at -20°C, n = 6
Description: The procedures for precision, stability, limit of quantitation, and sample recovery are described in the Supplementary Material S2.4 Methodological Investigations section.
Plasma samples were collected 30 minutes after administration (n=6). The stability of the samples was calculated within one week at -20°C.

[7] = Crocetin content of plasma sample by SERS and liquid phase determination; format: in vivo; details: SD, rat, oral, 4.5 mg kg^−1, 0.5 h medium-dose plasma
Description: The samples were analyzed by high performance liquid chromatography.
The treatment of plasma samples is described in Procedure 2.2.3. 50 uL of treated plasma was added into silver nanoparticle solution with an equal volume concentration of 10 mg/mL 50 uL mixed solution was placed on a round quartz sheet with a diameter of 1 cm, […] and the Raman spectrum was detected and recorded. Detection conditions: scanning time 3 s, laser power: 80 mW. Spectra are acquired by Optosky Raman microscopy software.
A standard curve was prepared based on the peak intensity of the characteristic peak at 1,532 cm^−1 and the content was determined, as shown in Figure 10C.

[8] = gardenia extract 0.9 g/kg, positive drug paroxetine hydrochloride 5 mg/kg

SMILES: Fc1ccc([C@@H]2CCNC[C@H]2COc2ccc3c(c2)OCO3)cc1 [Positive, paroxetine hydrochloride, reference compound]
brain DA compared with the control group (dopamine (DA)): no significant difference | DA expression level in brain tissue (dopamine (DA); [8]): 81.70 ± 1.94 nmol/L | neuronal cell damage in the dentate gyrus region (hippocampal neurons): significantly improved | number of Nissl bodies, hippocampal CA3 (hippocampal neurons; gardenia extract 0.9 g/kg): no significant increase | number of Nissl bodies, hippocampal CA1 (hippocampal neurons; gardenia extract 0.9 g/kg): significantly increased | NA expression level in brain tissue (noradrenaline (NA); [8]): 4.64 ± 0.09 ng/mL | GABA expression level in brain tissue [1, 8]: 7.34 ± 0.30 µmol/L | number of Nissl bodies, prefrontal cortex (cortical neurons): increase

SMILES: CC(/C=C/C=C(\C)C(=O)O[C@@H]1O[C@H](CO[C@@H]2O[C@H](CO)[C@@H](O)[C@H](O)[C@H]2O)[C@@H](O)[C@H](O)[C@H]1O)=C\C=C\C=C(C)\C=C\C=C(/C)C(=O)O[C@@H]1O[C@H](CO[C@@H]2O[C@H](CO)[C@@H](O)[C@H](O)[C@H]2O)[C@@H](O)[C@H](O)[C@H]1O [Crocin I, crocin I]
improvement of spatial memory ability ([2]; crocin I 2.25, 4.5, 9 mg/kg): dose-dependent | escape latency ([2]; crocin I low, middle and high dose groups (2.25, 4.5, 9 mg/kg)): decreased | DA expression level in brain tissue (dopamine (DA); High dose crocin I 9 mg/kg): 80.22 ± 2.64 nmol/L | DA expression level in brain tissue (dopamine (DA); Low dose crocin I 2.25 mg/kg, control 84.66, model 169.17): 147.33 ± 3.72 nmol/L | DA expression level in brain tissue (dopamine (DA); Medium dose crocin I 4.5 mg/kg): 137.22 ± 1.31 nmol/L | brain DA compared with the control group (dopamine (DA)): no significant difference | neuronal cell damage in the dentate gyrus region (hippocampal neurons): significantly improved | dentate gyrus morphology (angle/shape) (hippocampal neurons; crocin I high dose 9 mg/kg): significant changes | dentate gyrus morphology (angle/shape) (hippocampal neurons; crocin I low dose 2.25 mg/kg): no significant change | number of Nissl bodies, hippocampal CA3 (hippocampal neurons; gardenia extract 0.9 g/kg): increased in a dependent manner | dentate gyrus morphology (angle/shape) (hippocampal neurons; crocin I middle dose 4.5 mg/kg): significant changes | number of Nissl bodies, hippocampal CA1 (hippocampal neurons; gardenia extract 0.9 g/kg): significantly increased | number of Nissl bodies, dentate gyrus (hippocampal neurons; high-dose crocin I (9 mg/kg), gardenia extract 0.9 g/kg): increased significantly | NA expression level in brain tissue (noradrenaline (NA); High dose crocin I 9 mg/kg): 5.60 ± 0.02 ng/mL | NA expression level in brain tissue (noradrenaline (NA); Low dose crocin I 2.25 mg/kg, control 3.78, model 8.08): 5.99 ± 0.02 ng/mL | NA expression level in brain tissue (noradrenaline (NA); Medium dose crocin I 4.5 mg/kg): 6.73 ± 0.18 ng/mL | GABA expression level in brain tissue ([1]; High dose crocin I 9 mg/kg): 6.83 ± 0.29 µmol/L | GABA expression level in brain tissue ([1]; Low dose crocin I 2.25 mg/kg, control 7.43, model 4.99): 5.28 ± 0.21 µmol/L | GABA expression level in brain tissue ([1]; Medium dose crocin I 4.5 mg/kg): 5.49 ± 0.29 µmol/L | GABA content compared with the model group ([1]; crocin I low-dose group): no significant difference | 5-HTT expression level in brain tissue ([3]; High dose crocin I 9 mg/kg): 427.64 ± 7.00 ng/mL | 5-HTT expression level in brain tissue ([3]; Low dose crocin I 2.25 mg/kg, control 238.58, model 573.69): 374.76 ± 13.24 ng/mL | 5-HTT expression level in brain tissue ([3]; Medium dose crocin I 4.5 mg/kg): 459.21 ± 5.21 ng/mL | content of 5-HTT compared with the model group ([3]; crocin I low-, medium-, high-dose, gardenia extract, positive drug, P < 0.001): significantly reduced | oil-water partition coefficient (logP) [4]: −1.03 | apparent permeability coefficient Papp (Caco-2 cells): low | number of Nissl bodies, prefrontal cortex (cortical neurons): increased | sugar water preference [5]: dose-dependent

stability in plasma samples: Accuracy (RE, %) ([6]; High dose plasma sample 837.96 ng/mL): 99.64% | stability in plasma samples: Accuracy (RE, %) ([6]; Low dose plasma sample 292.60 ng/mL): 97.76% | stability in plasma samples: Accuracy (RE, %) ([6]; Medium dose plasma sample 527.32 ng/mL): 97.14% | concentration at 0.5 h ([7]; AgNPs, peak 1,532 cm^-1, read-out: crocetin content in plasma by SERS): 433 ng/mL | concentration at 0.5 h ([7]; same sample, read-out: crocetin content in plasma by liquid phase determination): 486 ng/mL
SMILES: CC(/C=C/C=C(\C)C(=O)O)=C\C=C\C=C(C)\C=C\C=C(/C)C(=O)O [crocetin]
apparent permeability coefficient Papp (Caco-2 cells): high
